Data from patent US20160272617A1, “SUBSTITUTED PHENYLALANINE DERIVATIVES” (BAYER PHARMA AKTIENGESELLSCHAFT, priority 2013, published 2016).
Where a name gives a salt, the structure may show the parent alone.

Tests used:
human and animal plasma = test: Determination of anticoagulatory activity: activated partial thromboplastin time (aPTT) in plasma; settings: concentration of test substance which brings about a 1.5-fold extension of the aPTT; plasma species not given
Method in brief: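 Citrated plasma (1:9, 0.11 M citrate; 4000 g, 15 min) from human or animal blood incubated with test compound and cephalin/kaolin PTT reagent for 3 min at 37° C.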

human factor XIa = biological target: T1, human factor XIa (Homo sapiens, UniProt P03951); test: Measurement of FXIa inhibition (fluorogenic peptide substrate Boc-Glu(OBzl)-Ala-Arg-AMC); format: biochemical; settings: factor XIa from Kordia, 15 min preincubation, 30 min at 22° C., fluorescence
T1 construct: purchased Kordia
Method in brief: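 Released AMC fluorescence (360/460 nm) read after 30 min at 22 °C. The reaction was started with Boc-Glu(OBzl)-Ala-Arg-AMC (10 μM stock) after a 15 min preincubation of the enzyme (0.45 nM stock) with compound (final 50 μM to 0.00013 μM).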

T1 sequence (P03951 388-625 limits assumed): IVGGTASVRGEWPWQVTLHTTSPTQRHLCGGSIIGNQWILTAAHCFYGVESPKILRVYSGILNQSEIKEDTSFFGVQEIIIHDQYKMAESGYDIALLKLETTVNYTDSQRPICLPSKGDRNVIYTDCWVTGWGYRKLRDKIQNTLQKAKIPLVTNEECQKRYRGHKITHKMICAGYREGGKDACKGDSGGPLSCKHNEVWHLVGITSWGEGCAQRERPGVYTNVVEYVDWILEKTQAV
T1 sequence (P03951 19-387 partner limits assumed): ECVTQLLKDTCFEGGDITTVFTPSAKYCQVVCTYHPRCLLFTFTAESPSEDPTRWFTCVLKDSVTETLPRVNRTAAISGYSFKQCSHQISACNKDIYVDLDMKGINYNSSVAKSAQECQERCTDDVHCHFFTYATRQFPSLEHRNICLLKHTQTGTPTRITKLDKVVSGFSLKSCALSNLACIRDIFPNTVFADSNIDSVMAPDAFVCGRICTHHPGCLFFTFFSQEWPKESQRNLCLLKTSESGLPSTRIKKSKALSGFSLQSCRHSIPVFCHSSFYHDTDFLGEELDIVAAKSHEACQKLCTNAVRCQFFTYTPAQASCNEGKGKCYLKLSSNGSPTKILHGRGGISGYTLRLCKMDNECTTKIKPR

SMILES | aPTT (human and animal plasma) | IC50 (human factor XIa)
COc1c(-c2ccc(C[C@H](NC(=O)[C@H]3CC[C@H](CN)CC3)C(=O)Nc3ccc(-c4nn[nH]n4)cc3)cc2)ccc(C(=O)NC2CCNCC2)c1F [Example 121, 4′-[(2S)-2-({[trans-4-(Aminomethyl)cyclohexyl]carbonyl}amino)-3-oxo-3-{[4-(2H-tetrazol-5-yl)phenyl]amino}propyl]-3-fluoro-2-methoxy-N-(piperidin-4-yl)biphenyl-4-carboxamide hydrochloride] | 0.007 µmol/L | 1 nM
CCOc1cc(C(=O)NC2CCNCC2)ccc1-c1ccc(C[C@H](NC(=O)[C@H]2CC[C@H](CN)CC2)C(=O)Nc2ccc(-c3nn[nH]n3)cc2)cc1 [Example 119, 4′-[(2S)-2-({[trans-4-(Aminomethyl)cyclohexyl]carbonyl}amino)-3-oxo-3-{[4-(2H-tetrazol-5-yl)phenyl]amino}propyl]-2-ethoxy-N-(piperidin-4-yl)biphenyl-4-carboxamide hydrochloride] | 0.08 µmol/L | 2.1 nM
Cc1cc(C(=O)NCCN)ccc1-c1ccc(C[C@H](NC(=O)[C@H]2CC[C@H](CN)CC2)C(=O)Nc2ccc3cn[nH]c3c2)cc1 [Example 3, N-(2-Aminoethyl)-4′-[(2S)-2-({[trans-4-(aminomethyl)cyclohexyl]carbonyl}amino)-3-(1H-indazol-6-ylamino)-3-oxopropyl]-2-methylbiphenyl-4-carboxamide hydrochloride] | 0.2 µmol/L | 11 nM
Cc1cc(C(=O)NC2CCNCC2)ccc1-c1ccc(C[C@H](NC(=O)[C@H]2CC[C@H](CN)CC2)C(=O)Nc2ccc3nc(C(F)(F)F)[nH]c3c2)cc1 [Example 52, 4′-[(2S)-2-({[trans-4-(Aminomethyl)cyclohexyl]carbonyl}amino)-3-oxo-3-{[2-(trifluoromethyl)-1H-benzimidazol-6-yl]amino}propyl]-2-methyl-N-(piperidin-4-yl)biphenyl-4-carboxamide hydrochloride] | 0.2 µmol/L | 14 nM
NC[C@H]1CC[C@H](C(=O)N[C@@H](Cc2ccc(-c3ccc(C(=O)N[C@@H]4CCNC4)cc3Cl)cc2)C(=O)Nc2ccc(-c3nn[nH]n3)cc2)CC1 [Example 12, 4′-[(2S)-2-({[trans-4-(Aminomethyl)cyclohexyl]carbonyl}amino)-3-oxo-3-{[4-(2H-tetrazol-5-yl)phenyl]amino}propyl]-2-chloro-N-[(3R)-pyrrolidin-3-yl]biphenyl-4-carboxamide hydrochloride] | 0.1 µmol/L | 2.7 nM
Cc1cc(C(=O)NC2CCNCC2)ccc1-c1ccc(C[C@H](NC(=O)[C@H]2CC[C@H](CN)CC2)C(=O)Nc2ccc3[nH]c(C(F)(F)C(F)(F)C(F)(F)C(=O)O)nc3c2)cc1 [Example 65, 4-[5-({(2S)-2-({[trans-4-(Aminomethyl)cyclohexyl]carbonyl}amino)-3-[2′-methyl-4′-(piperidin-4-ylcarbamoyl)biphenyl-4-yl]propanoyl}amino)-1H-benzimidazol-2-yl]-2,2,3,3,4,4-hexafluorobutanoic acid hydrochloride] | 0.48 µmol/L | 26 nM
Cc1cc(C(=O)N[C@H]2CC[C@H](N)CC2)ccc1-c1ccc(C[C@H](NC(=O)[C@H]2CC[C@H](CN)CC2)C(=O)Nc2ccc3[nH]c(C(F)(F)C(F)(F)F)nc3c2)cc1 [Example 79, N-(trans-4-Aminocyclohexyl)-4′-[(2S)-2-({[trans-4-(aminomethyl)cyclohexyl]carbonyl}amino)-3-oxo-3-{[2-(pentafluoroethyl)-1H-benzimidazol-5-yl]amino}propyl]-2-methylbiphenyl-4-carboxamide hydrochloride] | 0.21 µmol/L | 12 nM
Cc1cc(C(N)=O)ccc1-c1ccc(C[C@H](NC(=O)[C@H]2CC[C@H](CN)CC2)C(=O)Nc2ccc(-c3nn[nH]n3)cc2)cc1 [Example 14, 4′-[(2S)-2-({[trans-4-(Aminomethyl)cyclohexyl]carbonyl}amino)-3-oxo-3-{[4-(2H-tetrazol-5-yl)phenyl]amino}propyl]-2-methylbiphenyl-4-carboxamide hydrochloride] | 0.49 µmol/L | 1.4 nM
